Laboratory results taken from US20150099754A1, “TREATMENT OF CANCER CHARACTERIZED BY GENE MUTATIONS” (SIGNAL PHARMACEUTICALS, LLC, priority 2013, published 2015).
Values joined by “and” are separate entries in the source; they are usually repeats but may differ in a detail not shown here. Equal values may be shown once.

Experiments:
[1] = test system: hematological cancer cell lines; assay: Growth inhibitory effect of Compound 1 (Cell Titer-Glo, 72 hours, GI50) correlated with biomarkers; type: cell-based
Experimental: Cell Lines and Culture Conditions.
40 hematological cancer cell lines (Table 5) used in the study were purchased commercially. A lung cancer cell line A549 was used as a control cell line. A549 was purchased from National Cancer Institute (NCI) and cultured in RPMI+10% fetal bovine serum (FBS).
Cell pellets were made for 37 cell lines without any compound treatment and a reverse phase protein array (RPPA) was performed as described in Tibes R, et al. Mol Cancer Ther 2006; 5:2512-2521. The RPPA analysis of the 37 hematological cell lines was performed with 262 antibodies. The relative level of each protein in each sample was determined and normalized for protein loading. Protein levels were then transformed to log 2 values and median centered by individual batch.
Cells were lysed in RNeasy kit tissue lysis (RLT) buffer (Qiagen; Valencia, Calif.) and total RNA was isolated using RNeasy. Double-stranded cDNA and biotin-labeled cRNA were synthesized using 100 ng of total RNA using Ambion's MessageAmp Premier RNA Amplification Kit. […]
The seeding density for each cell line was optimized to ensure assay linearity in 384-well plates. […] When ready for testing, plates were removed from the freezer, thawed, and unsealed just prior to the addition of the test cells.
Prior to testing, cells were grown and expanded in culture flasks to provide sufficient amounts of starting material. […] At the time when exposure of cells to compound began (t0), initial cell number was assessed via a viability assay (Cell Titer-Glo) by quantifying the level of luminescence generated by adenosine-5′-triphosphate (ATP) present in viable cells. After 72 hours, cell viability of compound-treated cells was assessed via Cell Titer-Glo and read for luminescence.
Cell lines were assayed for growth inhibition by Compound 1 in at least 3 independent tests. […] The response of the control cell line to the compound was monitored closely to enable comparison of the data generated through the assay period. […] In addition, the IC50 value of Compound 1 for each cell line was calculated.

[2] = test system: Advanced Solid Tumors, Non-Hodgkin Lymphoma, or Multiple Myeloma; assay: Clinical Study B: Phase 1/2 dose finding study of the mTOR kinase inhibitor Compound 1 administered orally (best RECIST overall response, variants, Tables 2 and 3); type: in vivo, human; set-up: key: PR=partial response; SD=stable disease; PD=progressive disease; NE=non-evaluable; ND=not done; *: Confirmed reponse; conditions: one line per patient
Experimental: A Phase 1/2, Multi-Center, Open-Label, Dose Finding Study to Assess the Safety. Tolerability, Pharmacokinetics and Preliminary Efficacy of the mTOR Kinase Inhibitor Compound 1 Administered Orally to Subjects with Advanced Solid Tumors, Non-Hodgkin Lymphoma, or Multiple Myeloma.
Compound 1 is administered orally to subjects with advanced solid tumors, non-Hodgkin lymphoma (NHL), or multiple myeloma (MM). The study is designed as a Phase 1/2 trial consisting of two parts: dose escalation (Part A) and dose expansion (Part B).
The primary objectives of the study are (a) to determine the safety and tolerability of Compound 1 when administered orally and to define the non-tolerated dose (NTD) and the maximum tolerated dose (MTD) and (b) to determine the preliminary pharmacokinetics (PK) of Compound 1 following both single and multiple oral dosing of Compound 1.
The secondary objectives of the study are: (a) to evaluate the extent of inhibition of phosphorylation of S6RP (Ser235/236 and/or Ser240/244) and/or 4EB-P1 (Thr37/46) for mTORC1 activity and AKT (Ser473) and/or other relevant biomarkers for mTORC2 activity in peripheral blood samples and tumor biopsies following treatment with Compound 1; (b) to provide information on the preliminary efficacy of Compound 1; and (c) to characterize PK of the metabolite of Compound 1 following oral dosing of Compound 1.
In Part A, subjects will receive single and multiple ascending doses of Compound 1 to measure pharmacokinetics (PK) and identify the maximum tolerated dose (MTD). A modified accelerated titration design (Simon et al, J Nat Cancer Inst (1997) Vol. 89, No. 15) will be used to identify initial toxicity. During the accelerated course, initial cohorts of one subject will be given Compound 1 in dose increments of 100% until the first instance of first-course grade 2 or higher toxicity suspected to be drug-related, at which point the accelerated phase will stop, and that particular cohort will be expanded to a total of 6 subjects. Subsequently, a standard escalation schedule, with approximately 50% dose increments and 6-subject cohorts, will be initiated in order to establish the non-tolerated dose (NTD) and MTD. Smaller increments and additional subjects within a dose cohort may also be evaluated. A dose will be considered the NTD when 2 evaluable subjects in a cohort experience drug-related DLT. When the NTD is established, dose escalation will stop. The MTD is defined as the last dose level below the NTD with 0 or 1 out of 6 evaluable subjects experiencing DLT during Cycle 1. An intermediate dose (ie, one between the NTD and the last dose level before the NTD) or additional subjects within any dose cohort may be required to more precisely determine the MTD.
In Part B, subjects may start Compound 1 at the MTD and/or a lower dose level based on safety, PK and PD data from Part A. Approximately 200 subjects will be treated and evaluated for safety and preliminary antitumor activity after every two cycles of therapy. Selected tumor types include non-small cell lung cancer (NSCLC), glioblastoma multiforme (GBM), hepatocellular carcinoma (HCC), gastrointestinal neuroendocrine tumor (NET) of non-pancreatic origin, hormone receptor positive breast cancer (HRPBC), diffuse large B-cell lymphoma (DLBCL), and multiple myeloma (MM). Up to 40 evaluable subjects will be enrolled for each tumor type.
Men and women, 18 years or older, with advanced NHL, MM, or advanced unresectable solid tumors, including subjects who have progressed on (or not been able to tolerate) standard therapy or for whom no standard anticancer therapy exists.
During the first cycle only in Part A, each subject will be administered a single dose of Compound 1 (Day −1), followed by a 48-hour observation and PK sampling period, followed on Day 1 by daily uninterrupted dosing for 28 days (Cycle 1=30 days). In subsequent Part A cycles, subjects are treated in 28-day cycles with continuous dosing from Day 1 to 28. […]

A549 = assay: Repeat testing of pre-spotted Compound 1 plates against the control cell line (A549); type: cell-based; conditions: sealed 384-well plates stored at −20° C. for up to 1 month
Experimental: The seeding density for each cell line was optimized to ensure assay linearity in 384-well plates. Increasing concentrations of Compound 1 (0.5 nM to 10 μM) were spotted in a 10-point serial dilution fashion (3-fold dilution) in duplicate within the plate via an acoustic dispenser (EDCATS-100) into an empty 384-well plate. The dimethyl sulfoxide (DMSO) concentration was kept constant for a final assay concentration of 0.1% DMSO. Plates were replicated for use against different cell lines and testing periods. After compound plate replication, all plates were sealed (Agilent ThermoLoc) and stored at −20° C. for up to 1 month. […] When ready for testing, plates were removed from the freezer, thawed, and unsealed just prior to the addition of the test cells.

[3] = test system: Advanced Solid Tumors, Non-Hodgkin Lymphoma or Multiple Myeloma; assay: Clinical Study A: Phase 1/2 dose finding study of Compound 1 administered orally (tumor response, RECIST 1.1); type: in vivo, human; set-up: key to RECIST* (best target lesion response): PR = partial response; SD = stable disease; PD = progressive disease; NE = nonevaluable; ND = not done

SMILES: CO[C@H]1CC[C@H](N2C(=O)CNc3ncc(-c4ccc(C(C)(C)O)nc4)nc32)CC1 [Compound 1, 7-(6-(2-hydroxypropan-2-yl)pyridin-3-yl)-1-((trans)-4-methoxycyclohexyl)-3,4-dihydropyrazino[2,3-b]pyrazin-2(1H)-one]
- IRF4 protein levels versus sensitivity to growth inhibition ([1]; 37 hematological cancer cell lines, RPPA, FIG. 5): negatively correlated
- IRF4 gene expression level (Probe Set 216986_s_at) versus sensitivity to growth inhibition ([1]; 40 hematological cancer cell lines, FIG. 4): negatively correlated
- sensitivity versus activation of mTORC1 and mTORC2 (biomarker RPPA) ([1]; subgroup of DLBCL lines, FIG. 6): correlated
- Best overall response ([2]; patients with HCC exp. (expansion)): SD (2×) and NE
- Best overall response ([2]; patients with MM): PD (8×) and NE and SD (4×)
- Best overall response ([2]; patients with NET exp. (expansion)): SD (17×) and PD (2×) and NE and PR
- Best overall response ([2]; patients with NET): SD (18×) and NE (4×) and PR
- Best overall response ([2]; patients with NSCL+): PR and PD
- Best overall response ([2]; patients with NSCLC): NE (6×) and SD (11×) and PD (2×)
- stability in pre-spotted plates (A549): stable
- RECIST* (best target lesion response) ([3]; ER+ patients, genes with mutations of interest): SD (8×) and PD (3×) and PR (2×)
- showing RECIST PR ([3]; patients treated with Compound 1, FIG. 1, data as of September 2014): 2/17
- target lesions showing PR ([3]; patients treated with Compound 1, FIG. 1, data as of September 2014, all with PIK3CA mutations): 3/17
